Patent publication US9790207B2, “Pan-genomic inhibitors of NS5A protein encoded by HCV, pharmaceutical compositions, intermediates for inhibitor synthesis, and their synthesis and application methods” (priority 2015, dated 2017)
Counter-ions that a name gives are not always drawn. Like-named read-outs stand apart in the source and are kept apart here.

Experiments:
HCV gT1b replicon = test: HCV replicon assay, gT1b; assay type: cell-based, Hepatitis C virus (HCV); conditions: Hepatitis C virus, GT1B, Huh-7, Huh7 replicon cells, mean value
Procedure: (§1) The HCV replicon assay was used to determine the antiviral activity of compounds of general formula 2 (test compounds). The test cell line used in the HCV Replicon Assay was the human hepatoma cell line Huh7 incorporating the HCV replicons synthesized by an outside vendor.
(§2) 96-well plates were seeded with cells at a density of 7.5×10^3 cells per well in 50 μl of assay media. The compound stock solution was made up freshly in an assay medium (DMEM 1×, Cellgro; cat. #10-013-CV) as a 2× stock. A total of 11 serial 3-fold dilutions of test compounds were prepared from the 2× stock in the assay media ranging from 20 nM-0.2 pM final concentrations. At least 4 hours after seeding the cells, compound treatment was initiated by adding 50 μl of compound dilution to the plates. The final concentrations of compound therefore ranged from 10 nM to 0.1 pM when diluted 1:1 in culture media. The final DMSO concentration was 0.5%. Cells and inhibitors were incubated for 3 days at 37° C./5% CO2. The media was removed from the plates by gentle tapping. The cells were fixed with 100 μl 1:1 acetone:methanol for 1 minute, washed three times with PBS buffer, and then blocked with 150 μl/well 10% Fetal Bovine Serum (FBS) in PBS for 1 hour at room temperature. The cells were then washed three times with PBS buffer and incubated with 100 μl/well anti-hepatitis C core mAb (Affinity BioReagents; cat. # MA1-080, 1 mg/ml stock diluted 1:4,000 in 10% FBS-PBS) for 2 hours at 37° C. Then, the cells were washed three times with PBS and incubated with 100 μl/well HRP-Goat Anti-Mouse antibody (diluted 1:3.500 in 10% FBS-PBS) for 1 hour at 37° C. The cells were then washed three times with PBS and developed with an OPD solution, 100 μl/well (1 OPD tablet+12 ml citrate/phosphate buffer+5 μl 30% H2O2 per plate), for 30 minutes in the dark at room temperature. The reaction was stopped with 2N H2SO4 (100 μl/well), and the absorbance was measured at A490 X on a Victor^3 V 1420 multilabel counter (Perkin Elmer).

HCV gT1a replicon = test: HCV replicon assay, gT1a; assay type: cell-based, Hepatitis C virus (HCV); conditions: Hepatitis C virus, GT1A, Huh-7; Huh7 replicon cells; mean
Procedure: as §1, §2

HCV gT2a replicon = test: HCV replicon assay, gT2a; assay type: cell-based, Hepatitis C virus (HCV); conditions: Hepatitis C virus, GT2A, Huh-7; Huh7 replicon cells; mean
Procedure: as §1, §2

HCV gT3a replicon = test: HCV replicon assay, gT3a; assay type: cell-based, Hepatitis C virus (HCV); conditions: Hepatitis C virus, GT3A
Procedure: as §1, §2

HCV gT4a replicon = test: HCV replicon assay, gT4a; assay type: cell-based, Hepatitis C virus (HCV); conditions: Hepatitis C virus, GT4A, Huh-7, read-out: gT4a, EC50 (pM) mean
Procedure: as §1, §2

HCV gT5a replicon = test: HCV replicon assay, gT5a; assay type: cell-based, Hepatitis C virus (HCV); conditions: Hepatitis C virus, GT5A, Huh-7, read-out: gT5a, EC50 (pM) mean
Procedure: as §1, §2

[1] = Cytotoxicity, cell viability by ATPLite Kit; assay type: cell-based, human; conditions: human, Huh7 cells (human hepatoma cell line), 10% FBS, maximal inhibition, read-out: Cytotox gT1b 10% FBS max. inh.
Procedure: The cytotoxicity of the test compounds was studied in parallel using the same cell line, Huh7. Cell viability was determined using the ATPLite Kit (Perkin-Elmer, Boston, USA), according to manufacturer's instructions. 96-well black/transparent bottom plates were seeded with cells at a density of 7.5×10^3 cells per well in 50 μl medium. After 18 hours, compound treatment was initiated by adding 50 μl of compound dilution into the plates. Each compound dilution was tested in triplicates. The cells and inhibitors were then incubated for 96 hours at 37° C./5% CO2. The plates were washed twice with PBS (0.2 ml/well), and then lysed by adding lysis buffer, 0.05 ml/well (all reagents were included with the ATPLite Kit). After rocking for 5 min on a rocking platform, substrate buffer was added (0.05 ml/well). After additional 5-min incubation, the plates were kept in dark for 10 min, and the luminescence was read using TopCount NXT (Packard, Perkin Elmer). CC50 values for all test compounds were determined using XLfit 4.1 software (Table 2).

[2] = 10% FBS, read-out: gT1b 10% FBS, EC50 (pM) mean
[3] = 40% NHS, read-out: gT1b 40% NHS, EC50 (pM) mean
[4] = Huh-7, Huh7 replicon cells, mean, read-out: gT3a, EC50 (pM) mean

Structure (SMILES) | EC50 (HCV gT1b replicon; [2]) [pM] | EC50 (HCV gT1b replicon; [3]) [pM] | EC50 (HCV gT1a replicon) [pM] | EC50 (HCV gT2a replicon) [pM] | EC50 (HCV gT3a replicon; [4]) [pM] | EC50 (HCV gT4a replicon) [pM] | EC50 (HCV gT5a replicon) [pM] | inhibition at 96 h [1] [%] | EC50 (HCV gT3a replicon; Huh-7, read-out: gT3a, EC50 (pM) mean, Huh7 replicon cells) [pM]
COC(=O)N[C@H](C(=O)N1CCC[C@H]1c1ncc(-c2cc(C)c(C#CC#Cc3cnc([C@@H]4CCCN4C(=O)[C@H](NC(=O)OC)c4ccccc4)[nH]3)c(-c3ccccc3)c2)[nH]1)C(C)C [2(18)•2HCl, [(S)-1-((S)-2-{5-[6-(4-{2-[(S)-1-((R)-2-Methoxycarbonylamino-2-phenyl-acetyl)-pyrrolidin-2-yl]-3H-imidazol-4-yl}-buta-1,3-diynyl)-5-methyl-biphenyl-3-yl]-1H-imidazol-2-yl}-pyrrolidine-1-carbonyl)-2-methyl-propyl]-carbamic acid methyl ester dihydrochloride] | 1.89 | 10.9 | 124 | 3 | 26 | 9.6 | 19.2 | 12 | 
COC(=O)N[C@H](C(=O)N1CCC[C@H]1c1ncc(-c2ccc(-c3ccc(-c4cnc([C@@H]5CCCN5C(=O)[C@H](NC(=O)OC)c5ccccc5)[nH]4)cc3)c(-c3ccccc3)c2)[nH]1)C(C)C [2(22)•2HCl, ((S)-1-{(S)-2-[5-(4-{2-[(S)-1-((R)-2-Methoxycarbonylamino-2-phenyl-acetyl)-pyrrolidin-2-yl]-3H-imidazol-4-yl}-[1,1′;2′,1″]terphenyl-4′-yl)-1H-imidazol-2-yl]-pyrrolidine-1-carbonyl}-2-methyl-propyl)-carbamic acid methyl ester dihydrochloride] | 2.58 | 38.8 | 117 | 3.9 | 16.6 | 9.4 | 31.3 | 30 | 
COC(=O)N[C@H](C(=O)N1CCC[C@H]1c1ncc(-c2ccc(-c3ccc(-c4cnc([C@@H]5CCCN5C(=O)[C@H](NC(=O)OC)c5ccccc5)[nH]4)cc3)c(Oc3ccccc3)c2)[nH]1)C(C)C [2(23)•2HCl, ((S)-1-{(S)-2-[5-(4′-{2-[(S)-1-((R)-2-Methoxycarbonylamino-2-phenyl-acetyl)-pyrrolidin-2-yl]-3H-imidazol-4-yl}-2-phenoxy-biphenyl-4-yl)-1H-imidazol-2-yl]-pyrrolidine-1-carbonyl}-2-methyl-propyl)-carbamic acid methyl ester dihydrochloride] | 2.1 | 15.7 | 154 | 4.1 | 10.3 | 5.4 | 13.6 | 27 | 
COC(=O)N[C@H](C(=O)N1CCC[C@H]1c1ncc(-c2ccc(C#CC#Cc3cnc([C@@H]4CCCN4C(=O)[C@H](NC(=O)OC)c4ccccc4)[nH]3)c(Oc3ccccc3)c2)[nH]1)C(C)C [2(19)•2HCl, [(S)-1-((S)-2-{5-[4-(4-{2-[(S)-1-((R)-2-Methoxycarbonylamino-2-phenyl-acetyl)-pyrrolidin-2-yl]-3H-imidazol-4-yl}-buta-1,3-diynyl)-3-phenoxy-phenyl]-1H-imidazol-2-yl}-pyrrolidine-1-carbonyl)-2-methyl-propyl]-carbamic acid methyl ester dihydrochloride] | 1.53 | 8.41 | 214 | 12.6 |  | 6 | 18.8 | 38 | 40.3
COC(=O)N[C@H](C(=O)N1CCC[C@H]1c1ncc(-c2cc(C)c(-c3ccc(-c4cnc([C@@H]5CCCN5C(=O)[C@H](NC(=O)OC)c5ccccc5)[nH]4)cc3)c(-c3ccccc3)c2)[nH]1)C(C)C [2(27)•2HCl, ((S)-1-{(S)-2-[5-(4-{2-[(S)-1-((R)-2-Methoxycarbonylamino-2-phenyl-acetyl)-pyrrolidin-2-yl]-3H-imidazol-4-yl}-6′-methyl-[1,1′;2′,1″]terphenyl-4′-yl)-1H-imidazol-2-yl]-pyrrolidine-1-carbonyl}-2-methyl-propyl)-carbamic acid methyl ester dihydrochloride] | 5.1 | 14.5 | 203 | 7.9 | 25.2 | 12.3 | 25.8 | 31 | 
COC(=O)N[C@H](C(=O)N1CCC[C@H]1c1ncc(-c2ccc(C#CC#Cc3cnc([C@@H]4CCCN4C(=O)[C@H](NC(=O)OC)c4ccccc4)[nH]3)c(N(C)c3ccccc3)c2)[nH]1)C(C)C [2(21)•2HCl, [(S)-1-((S)-2-{5-[4-(4-{2-[(S)-1-((R)-2-Methoxycarbonylamino-2-phenyl-acetyl)-pyrrolidin-2-yl]-3H-imidazol-4-yl}-buta-1,3-diynyl)-3-(methyl-phenyl-amino)-phenyl]-1H-imidazol-2-yl}-pyrrolidine-1-carbonyl)-2-methyl-propyl]-carbamic acid methyl ester trihydrochloride] | 1.79 | 14.2 | 72 | 10.6 | 35.1 | 11 | 26.6 | 14 | 
COC(=O)N[C@H](C(=O)N1CCC[C@H]1c1ncc(-c2cc(F)c(C#CC#Cc3cnc([C@@H]4CCCN4C(=O)[C@H](NC(=O)OC)c4ccccc4)[nH]3)c(-c3ccccc3)c2)[nH]1)C(C)C [2(17)•2HCl, [(S)-1-((S)-2-{5-[5-Fluoro-6-(4-{2-[(S)-1-((R)-2-methoxycarbonylamino-2-phenyl-acetyl)-pyrrolidin-2-yl]-3H-imidazol-4-yl}-buta-1,3-diynyl)-biphenyl-3-yl]-1H-imidazol-2-yl}-pyrrolidine-1-carbonyl)-2-methyl-propyl]-carbamic acid methyl ester dihydrochloride] | 1.36 | 9.18 | 50.8 | 5 | 20.1 | 11.8 | 26 | 22 | 
COC(=O)N[C@H](C(=O)N1CCC[C@H]1c1ncc(-c2ccc(C#CC#Cc3cnc([C@@H]4CCCN4C(=O)[C@H](NC(=O)OC)c4ccccc4)[nH]3)c(-c3cccnc3)c2)[nH]1)C(C)C [2(16)•2HCl, [(S)-1-((S)-2-{5-[4-(4-{2-[(S)-1-((R)-2-Methoxycarbonylamino-2-phenyl-acetyl)-pyrrolidin-2-yl]-3H-imidazol-4-yl}-buta-1,3-diynyl)-3-pyridin-3-yl-phenyl]-1H-imidazol-2-yl}-pyrrolidine-1-carbonyl)-2-methyl-propyl]-carbamic acid methyl ester trihydrochloride] | 4.7 | 36.2 |  |  |  |  |  | 32 | 
COC(=O)N[C@H](C(=O)N1CCC[C@H]1c1ncc(-c2ccc(C#CC#Cc3cnc([C@@H]4CCCN4C(=O)[C@H](NC(=O)OC)c4ccccc4)[nH]3)c(-c3ccc(C(C)(C)C)cc3)c2)[nH]1)C(C)C [2(11)•2HCl, [(S)-1-((S)-2-{5-[4′-tert-Butyl-6-(4-{2-[(S)-1-((R)-2-methoxycarbonylamino-2-phenyl-acetyl)-pyrrolidin-2-yl]-3H-imidazol-4-yl}-buta-1,3-diynyl)-biphenyl-3-yl]-1H-imidazol-2-yl}-pyrrolidine-1-carbonyl)-2-methyl-propyl]-carbamic acid methyl ester dihydrochloride] | 1.24 | 10.7 |  |  |  |  |  | 29 | 
